Data reported in patent US20150124259A1, “Method For Biodynamic Spectroscope Imaging” (Purdue Research Foundation, priority 2013, published 2015).

What was measured:
Format in all cases: cell-based
[1] = tested on: tumor spheroids (UMR106); experiment: Biodynamic spectroscopic imaging (BSI) of mitosis events in tumor spheroids, single-band thresholding (Taxol treatment)
Source text: The mitosis phase has its own fingerprint because mitosis is one of the most dramatic events in a cell's life. However compared to the dynamic speckle from an entire tumor spheroid, the signal of the mitosis of a single cell is very weak. The statistical TDS technique is not able to show the mitosis events of single cells. On the other hand, BSI may be applied to generate a voxel based microspectrograms. In the current TDS system, the transverse and longitudinal resolution are 9 μm and 18 μm, and the typical size of UMR106 cell in tumor spheroid is about 10 um. Therefore, on the reconstructed image, each pixel contains about 4 cells. However the spectrum of a single pixel is too noisy to perform analysis, so 2×2 pixels can be preferably used as the balance point to calculate the spectra of the voxels. Thus, according to one aspect of the BSI method disclosed herein, the 3D image is reconstructed as voxels, rather than pixels, in which a voxel includes 2×2 pixels. The microspectrograms are then generated for each voxel, rather than pixel, which substantially eliminates the effect of noise in the image.
Therefore, for a single voxel, the normalized spectra from five datasets (20 mins) can be averaged together, with no risk of “missing” a biological event of the cell. By combining these normalized spectra together, the micro (voxel) spectrograms are generated. The baseline is the averaged spectrum over the entire tissue when it is only surrounded by growth medium. During the entire experimental period, each voxel corresponds to one spectrogram. A frequency vs. time fluctuation spectral response image of the tumor spheroid is constructed.
The frequency range is picked at a mid-high frequency band (0.52 Hz to 1 Hz, marked as a box in FIG. 7) and enhancement is picked as the finger print of the mitosis. The enhancement in this frequency range indicates both cell membrane undulation and cell organelle motion during mitosis. […] The prior approach discussed above referred to single-band thresholding that used the third case baseline described above as essentially a pixel-based TDS. This pixel-based TDS approach fails to isolate mitosis from other biological processes and to isolate mitosis from noise. Therefore, single-band thresholding only correctly acquires mitosis information when using the first or second case baselines described above.
Paclitaxel is a mitotic inhibitor used as an anti-cancer drug. It can stabilize microtubules so that cell division during mitosis can be interrupted. Experiments were performed using 2 concentrations of Paclitaxel: 1 μg/ml and 10 μg/ml. The tumor spheroids in these experiments were 430 μm diameter (1 μg/ml) and 410 μm diameter (10 μg/ml). The baselines were taken as described above. After 40 minutes, the original growth medium was replaced by medium with Paclitaxel. The data was collected for six hours, and the resulting macrospectrograms of the experiments are shown in FIG. 9b for 1 μg/ml and FIG. 9c for 10 μg/ml.
The thresholding used in this example is based on the single-band method using the first case baseline described above that averages the baseline over all pixels for all times. […] Each light speckle in each image represents a mitosis event. […] The mitosis events depicted in the BSI images of FIG. 10 are quantified in the graph of FIG. 11. The y-axis of the graph is the density of the voxels which are in the mitosis phase expressed as a fraction of the mitotic voxels to the total number of voxels for the underlying image. […]

[2] = tested on: DLD-1 tumor spheroid; experiment: BSI imaging of tumor heterogeneity of drug response in DLD-1 tumor spheroid
Source text: In a previous co-pending application Ser. No. 13/760,827, entitled “System and Method for Determining Modified States of Health of Living Tissue”, filed on Feb. 6, 2013, and published as Pub. No. 2013/0144151 (the '151 application), the entire disclosure of which is incorporated herein by reference, a method is described that uses time-frequency masks to extract feature vectors. Multiple masks are used to create feature vectors that are then used to classify a drug response. In accordance with the present disclosure, the BSI techniques described herein can use the same or similar time-frequency masks to capture different mechanisms related to the drug action, and then perform the analysis on a per-pixel basis to generate “hyperspectral” maps of the tumor response to drugs. Because the signal-to-noise of single-pixel power spectra for biodynamic spectroscopic imaging (BSI) is not as large as for tissue dynamics spectroscopy (TDS) that averages over many pixels, it is necessary to modify the time-frequency mask from that described in the '151 application. The time-frequency spectral power density is given by S(ω,T). This power spectrum typically has a power-law decay at higher frequencies, with several orders of magnitude in vertical dynamic range. […]

[3] = tested on: ex vivo biopsy sample of canine multicentric B-cell lymphoma; experiment: BSI of drug response of ex vivo biopsy sample; settings: two-color pixel map
Source text: An additional example of BSI is shown in FIG. 18 for an ex vivo biopsy sample of canine multicentric B-cell lymphoma. […] This signature is coded in green in the BSI image. The other spectral signature had low-frequency enhancement and high-frequency suppression, which is coded as red in the BSI image. […] This ex vivo biopsy is responding to the anticancer drug doxorubicin.

CC(=O)O[C@H]1C(=O)[C@@]2(C)[C@H]([C@H](OC(=O)c3ccccc3)[C@]3(O)C[C@H](OC(=O)[C@H](O)[C@@H](NC(=O)c4ccccc4)c4ccccc4)C(C)=C1C3(C)C)[C@]1(OC(C)=O)CO[C@@H]1C[C@@H]2O [Paclitaxel]
mitotic events, fraction of mitotic voxels to total voxels over time (FIG. 11) ([1]; 1 μg/ml, 430 μm diameter spheroid, compared with negative controls): fewer mitotic events and decayed faster | mitosis remaining after drug application (FIG. 11) ([1]; 1 μg/ml, six hours after applying): still slight mitosis | mitotic events, fraction of mitotic voxels to total voxels over time (FIG. 11) ([1]; 410 μm diameter spheroid): decayed the fastest | mitosis activity inside the tumor spheroids (BSI images, FIG. 10) ([1]; Taxol treated vs untreated, single-band threshold 0.52-1.0 Hz, nearly six hours): significantly reduced | mitosis remaining after drug application (FIG. 11) ([1]; two hours after applying the drug): almost no mitosis at all

CNC(=O)c1cc(Oc2ccc(NC(=O)Nc3ccc(Cl)c(C(F)(F)F)c3)cc2)ccn1 [Sorafenib]
homogeneity of the response across the specimen (FIGS. 16c, 17) ([2]; BSI image and classification map): majority of the specimen is unaffected or only slightly affected | BSI spectral response to drug, spatial distribution (FIG. 16c) ([2]; spheroid approximately 600 microns in diameter, periphery vs interior): highest magnitude in the proliferating shell, with low (dark) response internal to the tumor

COc1cccc2c1C(=O)c1c(O)c3c(c(O)c1C2=O)C[C@@](O)(C(=O)CO)C[C@@H]3O[C@H]1C[C@H](N)[C@H](O)[C@H](C)O1 [doxorubicin]
BSI spectral responses of tissue to drug (FIG. 18) [3]: two very different spectral responses
